Measurements published in the kinase profiling compilation of Christmann-Franck et al. (2016).

What was measured:
Experiment in all cases: Caliper, Mobility shift assay off-chip
AXL (human) = AXL (human) (UniProt P30530)
CAMK1 (human) = CAMK1 (human) (UniProt Q14012)
CAMK2B (human) = CAMK2B (human) (UniProt Q13554)
CAMK4 (human) = CAMK4 (human) (UniProt Q16566)
CDC42BPB (human) = CDC42BPB (human) (UniProt Q9Y5S2)
CDK2 CCNE1 (human) = CDK2 CCNE1 (human) (UniProt P24864+P24941)
CDK5 CDK5R1 p35 (human) = CDK5 CDK5R1 p35 (human) (UniProt Q00535+Q15078)
CDK6 CCND3 (human) = CDK6 CCND3 (human) (UniProt Q00534+P30281)
[1] = tested on: CHEK2 (human), O96017 [R145W]
DYRK2 (human) = DYRK2 (human) (UniProt Q92630)
[2] = tested on: EGFR (human), P00533 [L858R]
[3] = tested on: EGFR (human), P00533 [L861Q]
EPHA7 (human) = EPHA7 (human) (UniProt Q15375)
EPHB1 (human) = EPHB1 (human) (UniProt P54762)
FER (human) = FER (human) (UniProt P16591)
FGR (human) = FGR (human) (UniProt P09769)
[4] = tested on: FLT3 (human), P36888 [D835Y]
FYN (human) = FYN (human) (UniProt P06241)
GRK6 (human) = GRK6 (human) (UniProt P43250)
GSG2 (human) = GSG2 (human) (UniProt Q8TF76)
HIPK2 (human) = HIPK2 (human) (UniProt Q9H2X6)
INSRR (human) = INSRR (human) (UniProt P14616)
IRAK4 (human) = IRAK4 (human) (UniProt Q9NWZ3)
JAK2 JH1 JH2 (human) = JAK2 JH1 JH2 (human) (UniProt O60674)
MAP2K7 (human) = MAP2K7 (human) (UniProt O14733)
MAP3K9 (human) = MAP3K9 (human) (UniProt P80192)
MARK1 (human) = MARK1 (human) (UniProt Q9P0L2)
MELK (human) = MELK (human) (UniProt Q14680)
NTRK1 (human) = NTRK1 (human) (UniProt P04629)
NTRK2 (human) = NTRK2 (human) (UniProt Q16620)
NUAK1 (human) = NUAK1 (human) (UniProt O60285)
PDGFRB (human) = PDGFRB (human) (UniProt P09619)
PRKCB1 (human) = PRKCB1 (human) (UniProt P05771)
PRKCZ (human) = PRKCZ (human) (UniProt Q05513)
PRKD1 (human) = PRKD1 (human) (UniProt Q15139)
PTK2 (human) = PTK2 (human) (UniProt Q05397)
ROS1 (human) = ROS1 (human) (UniProt P08922)
RPS6KA3 KD1 KD2 (human) = RPS6KA3 KD1 KD2 (human) (UniProt P51812)
RPS6KA4 KD1 KD2 (human) = RPS6KA4 KD1 KD2 (human) (UniProt O75676)
TSSK1B (human) = TSSK1B (human) (UniProt Q9BXA7)

Sequence of AXL (human) (P30530 whole entry, looked up): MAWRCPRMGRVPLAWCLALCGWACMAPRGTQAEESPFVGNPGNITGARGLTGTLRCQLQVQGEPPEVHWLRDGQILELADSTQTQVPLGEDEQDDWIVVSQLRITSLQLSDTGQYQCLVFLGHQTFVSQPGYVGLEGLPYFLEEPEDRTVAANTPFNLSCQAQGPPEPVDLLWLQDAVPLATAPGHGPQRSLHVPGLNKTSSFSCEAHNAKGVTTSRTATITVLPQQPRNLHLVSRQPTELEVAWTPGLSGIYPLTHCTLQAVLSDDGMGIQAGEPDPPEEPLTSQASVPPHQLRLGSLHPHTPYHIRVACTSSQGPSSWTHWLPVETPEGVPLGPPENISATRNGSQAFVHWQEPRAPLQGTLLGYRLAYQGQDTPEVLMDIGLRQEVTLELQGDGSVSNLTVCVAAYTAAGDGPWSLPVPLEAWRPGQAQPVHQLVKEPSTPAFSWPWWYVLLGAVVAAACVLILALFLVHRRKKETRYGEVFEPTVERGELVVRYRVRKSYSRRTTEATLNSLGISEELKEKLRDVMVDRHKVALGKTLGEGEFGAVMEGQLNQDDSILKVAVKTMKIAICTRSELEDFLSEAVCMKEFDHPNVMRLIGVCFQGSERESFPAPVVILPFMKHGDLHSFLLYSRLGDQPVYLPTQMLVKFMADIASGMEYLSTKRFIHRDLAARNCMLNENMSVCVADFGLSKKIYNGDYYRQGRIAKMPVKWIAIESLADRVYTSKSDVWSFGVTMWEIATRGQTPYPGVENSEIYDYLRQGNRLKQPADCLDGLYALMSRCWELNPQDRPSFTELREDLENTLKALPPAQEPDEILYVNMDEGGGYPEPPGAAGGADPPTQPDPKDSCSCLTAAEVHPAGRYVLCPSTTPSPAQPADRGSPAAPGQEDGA
Sequence of FGR (human) (P09769 whole entry, looked up): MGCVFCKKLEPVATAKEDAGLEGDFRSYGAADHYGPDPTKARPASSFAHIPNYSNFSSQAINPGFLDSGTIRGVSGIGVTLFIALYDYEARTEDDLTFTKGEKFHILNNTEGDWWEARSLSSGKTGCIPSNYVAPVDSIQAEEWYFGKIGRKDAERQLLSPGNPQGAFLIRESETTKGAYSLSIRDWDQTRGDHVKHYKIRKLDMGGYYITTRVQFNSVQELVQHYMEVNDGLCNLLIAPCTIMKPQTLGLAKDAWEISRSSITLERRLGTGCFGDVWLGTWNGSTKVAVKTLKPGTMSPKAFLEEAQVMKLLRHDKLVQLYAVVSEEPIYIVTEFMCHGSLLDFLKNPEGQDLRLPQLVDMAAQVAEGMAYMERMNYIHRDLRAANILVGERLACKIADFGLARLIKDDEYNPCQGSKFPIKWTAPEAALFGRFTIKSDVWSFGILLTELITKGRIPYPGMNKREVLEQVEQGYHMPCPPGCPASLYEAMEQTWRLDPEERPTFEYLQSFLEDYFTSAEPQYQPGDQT
Sequence of PDGFRB (human) (P09619 whole entry, looked up): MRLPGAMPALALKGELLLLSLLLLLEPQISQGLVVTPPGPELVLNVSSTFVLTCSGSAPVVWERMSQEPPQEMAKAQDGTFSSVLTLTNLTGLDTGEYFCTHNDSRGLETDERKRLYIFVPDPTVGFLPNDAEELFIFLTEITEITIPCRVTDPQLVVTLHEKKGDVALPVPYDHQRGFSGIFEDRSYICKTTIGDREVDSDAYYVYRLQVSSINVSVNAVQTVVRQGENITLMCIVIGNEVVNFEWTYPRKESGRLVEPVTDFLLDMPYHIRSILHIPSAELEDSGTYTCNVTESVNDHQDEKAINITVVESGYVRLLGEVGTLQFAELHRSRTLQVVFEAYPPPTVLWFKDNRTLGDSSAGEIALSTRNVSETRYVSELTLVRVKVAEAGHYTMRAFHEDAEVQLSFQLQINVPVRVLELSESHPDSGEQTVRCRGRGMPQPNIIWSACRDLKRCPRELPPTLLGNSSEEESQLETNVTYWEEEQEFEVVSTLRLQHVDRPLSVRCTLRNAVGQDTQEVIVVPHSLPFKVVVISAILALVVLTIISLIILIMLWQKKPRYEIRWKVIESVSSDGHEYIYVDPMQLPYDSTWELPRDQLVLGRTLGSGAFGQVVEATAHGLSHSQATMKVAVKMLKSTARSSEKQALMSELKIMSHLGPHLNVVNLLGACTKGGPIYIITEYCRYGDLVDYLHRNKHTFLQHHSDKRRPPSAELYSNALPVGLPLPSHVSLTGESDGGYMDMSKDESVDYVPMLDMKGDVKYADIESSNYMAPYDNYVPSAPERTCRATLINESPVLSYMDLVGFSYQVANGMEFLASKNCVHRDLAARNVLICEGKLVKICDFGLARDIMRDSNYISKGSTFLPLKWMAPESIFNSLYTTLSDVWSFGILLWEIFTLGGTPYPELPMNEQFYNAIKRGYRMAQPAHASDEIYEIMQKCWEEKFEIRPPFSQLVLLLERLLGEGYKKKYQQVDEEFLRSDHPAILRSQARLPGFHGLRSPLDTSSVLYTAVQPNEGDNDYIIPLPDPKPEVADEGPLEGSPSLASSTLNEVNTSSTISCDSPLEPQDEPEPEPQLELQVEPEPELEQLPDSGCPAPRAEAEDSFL
Sequence of PTK2 (human) (Q05397 whole entry, looked up): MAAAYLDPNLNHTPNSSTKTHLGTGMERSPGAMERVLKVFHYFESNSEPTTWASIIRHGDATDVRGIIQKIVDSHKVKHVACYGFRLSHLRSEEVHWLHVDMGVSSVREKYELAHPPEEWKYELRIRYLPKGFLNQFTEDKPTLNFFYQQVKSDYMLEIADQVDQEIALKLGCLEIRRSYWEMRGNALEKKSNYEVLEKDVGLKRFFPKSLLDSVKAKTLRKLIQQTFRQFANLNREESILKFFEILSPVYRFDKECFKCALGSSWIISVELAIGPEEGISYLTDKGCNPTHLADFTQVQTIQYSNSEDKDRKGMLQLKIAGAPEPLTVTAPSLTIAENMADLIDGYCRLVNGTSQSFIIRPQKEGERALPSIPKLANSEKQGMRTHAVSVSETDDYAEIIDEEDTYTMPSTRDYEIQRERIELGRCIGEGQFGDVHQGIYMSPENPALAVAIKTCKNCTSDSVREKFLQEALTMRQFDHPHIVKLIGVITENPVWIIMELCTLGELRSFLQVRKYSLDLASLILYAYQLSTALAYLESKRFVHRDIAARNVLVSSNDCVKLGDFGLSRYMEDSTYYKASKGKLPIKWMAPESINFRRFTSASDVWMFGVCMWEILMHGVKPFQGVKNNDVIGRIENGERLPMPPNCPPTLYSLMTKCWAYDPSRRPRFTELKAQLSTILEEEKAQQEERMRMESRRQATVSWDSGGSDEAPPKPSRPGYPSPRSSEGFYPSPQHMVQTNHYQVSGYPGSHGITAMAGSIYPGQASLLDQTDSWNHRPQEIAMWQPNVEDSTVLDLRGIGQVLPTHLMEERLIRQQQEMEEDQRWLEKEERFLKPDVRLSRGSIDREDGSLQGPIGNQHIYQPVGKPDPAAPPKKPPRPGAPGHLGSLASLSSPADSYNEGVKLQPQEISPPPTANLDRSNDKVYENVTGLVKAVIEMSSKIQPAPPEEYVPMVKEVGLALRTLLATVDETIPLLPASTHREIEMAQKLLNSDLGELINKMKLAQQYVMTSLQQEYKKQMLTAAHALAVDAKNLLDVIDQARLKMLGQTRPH
Sequence of MARK1 (human) (Q9P0L2 whole entry, looked up): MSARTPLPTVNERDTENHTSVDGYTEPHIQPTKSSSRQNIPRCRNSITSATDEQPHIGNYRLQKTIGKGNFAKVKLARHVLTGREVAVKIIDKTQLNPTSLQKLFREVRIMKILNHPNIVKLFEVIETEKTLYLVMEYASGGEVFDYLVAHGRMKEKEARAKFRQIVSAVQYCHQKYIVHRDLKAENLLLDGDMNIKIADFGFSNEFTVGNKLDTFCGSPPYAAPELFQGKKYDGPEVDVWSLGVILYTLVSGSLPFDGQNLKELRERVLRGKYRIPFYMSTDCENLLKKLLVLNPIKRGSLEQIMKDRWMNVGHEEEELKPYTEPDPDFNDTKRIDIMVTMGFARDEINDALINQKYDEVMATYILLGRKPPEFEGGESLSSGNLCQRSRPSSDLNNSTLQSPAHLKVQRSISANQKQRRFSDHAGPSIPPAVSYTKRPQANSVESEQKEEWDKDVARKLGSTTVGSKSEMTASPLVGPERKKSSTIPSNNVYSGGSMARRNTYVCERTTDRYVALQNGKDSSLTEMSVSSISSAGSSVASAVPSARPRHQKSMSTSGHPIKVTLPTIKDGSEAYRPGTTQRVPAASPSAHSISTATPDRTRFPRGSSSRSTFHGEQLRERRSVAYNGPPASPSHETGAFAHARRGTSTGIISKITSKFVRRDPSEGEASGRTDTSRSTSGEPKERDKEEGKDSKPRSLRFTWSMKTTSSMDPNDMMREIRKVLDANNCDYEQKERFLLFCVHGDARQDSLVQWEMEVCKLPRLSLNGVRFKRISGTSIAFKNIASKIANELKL
Sequence of MELK (human) (Q14680 whole entry, looked up): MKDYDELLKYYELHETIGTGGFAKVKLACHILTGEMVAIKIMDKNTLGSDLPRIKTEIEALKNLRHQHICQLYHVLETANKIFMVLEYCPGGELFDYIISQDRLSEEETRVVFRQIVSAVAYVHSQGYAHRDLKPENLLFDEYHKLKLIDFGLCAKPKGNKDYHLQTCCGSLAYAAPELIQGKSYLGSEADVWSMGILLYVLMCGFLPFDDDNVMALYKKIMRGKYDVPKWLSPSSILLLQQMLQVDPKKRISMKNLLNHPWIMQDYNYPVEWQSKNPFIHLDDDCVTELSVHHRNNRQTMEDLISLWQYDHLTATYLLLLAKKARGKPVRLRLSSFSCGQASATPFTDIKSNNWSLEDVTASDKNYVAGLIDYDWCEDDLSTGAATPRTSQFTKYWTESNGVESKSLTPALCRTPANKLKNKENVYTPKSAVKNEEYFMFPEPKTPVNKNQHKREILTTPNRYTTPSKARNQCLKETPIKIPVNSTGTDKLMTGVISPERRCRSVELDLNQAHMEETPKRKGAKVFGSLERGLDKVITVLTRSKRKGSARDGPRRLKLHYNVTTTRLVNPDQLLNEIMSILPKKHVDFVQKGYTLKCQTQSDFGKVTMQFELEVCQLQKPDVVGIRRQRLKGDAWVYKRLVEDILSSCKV

SMILES: O=C(N[C@@H](COc1ccc2[nH]c(=O)[nH]c2c1)c1ccccc1)c1cccn(Cc2ccc(F)c(F)c2)c1=O
- residual activity (AXL (human); compound 10.0 µM): 107%
- residual activity (CAMK1 (human); compound 10.0 µM): 96%
- residual activity (CAMK2B (human); compound 10.0 µM): 105%
- residual activity (CAMK4 (human); compound 10.0 µM): 96%
- residual activity (CDC42BPB (human); compound 10.0 µM): 101%
- residual activity (CDK2 CCNE1 (human); compound 10.0 µM): 104%
- residual activity (CDK5 CDK5R1 p35 (human); compound 10.0 µM): 97%
- residual activity (CDK6 CCND3 (human); compound 10.0 µM): 102%
- residual activity ([1]; compound 10.0 µM): 96%
- residual activity (DYRK2 (human); compound 10.0 µM): 101%
- residual activity ([2]; compound 10.0 µM): 102%
- residual activity ([3]; compound 10.0 µM): 96%
- residual activity (EPHA7 (human); compound 10.0 µM): 103%
- residual activity (EPHB1 (human); compound 10.0 µM): 104%
- residual activity (FER (human); compound 10.0 µM): 98%
- residual activity (FGR (human); compound 10.0 µM): 100%
- residual activity ([4]; compound 10.0 µM): 99%
- residual activity (FYN (human); compound 10.0 µM): 89%
- residual activity (GRK6 (human); compound 10.0 µM): 108%
- residual activity (GSG2 (human); compound 10.0 µM): 74%
- residual activity (HIPK2 (human); compound 10.0 µM): 107%
- residual activity (INSRR (human); compound 10.0 µM): 108%
- residual activity (IRAK4 (human); compound 10.0 µM): 108%
- residual activity (JAK2 JH1 JH2 (human); compound 10.0 µM): 106%
- residual activity (MAP2K7 (human); compound 10.0 µM): 95%
- residual activity (MAP3K9 (human); compound 10.0 µM): 91%
- residual activity (MARK1 (human); compound 10.0 µM): 99%
- residual activity (MELK (human); compound 10.0 µM): 104%
- residual activity (NTRK1 (human); compound 10.0 µM): 108%
- residual activity (NTRK2 (human); compound 10.0 µM): 95%
- residual activity (NUAK1 (human); compound 10.0 µM): 106%
- residual activity (PDGFRB (human); compound 10.0 µM): 113%
- residual activity (PRKCB1 (human); compound 10.0 µM): 95%
- residual activity (PRKCZ (human); compound 10.0 µM): 106%
- residual activity (PRKD1 (human); compound 10.0 µM): 100%
- residual activity (PTK2 (human); compound 10.0 µM): 103%
- residual activity (ROS1 (human); compound 10.0 µM): 111%
- residual activity (RPS6KA3 KD1 KD2 (human); compound 10.0 µM): 124%
- residual activity (RPS6KA4 KD1 KD2 (human); compound 10.0 µM): 106%
- residual activity (TSSK1B (human); compound 10.0 µM): 100%

SMILES: Cc1n[nH]c2c1c(=O)n(CCCN)c1ccc(Cl)cc21
- residual activity (AXL (human); compound 1.0 µM): 96%
- residual activity (CAMK1 (human); compound 1.0 µM): 45%
- residual activity (CAMK4 (human); compound 1.0 µM): 61%
- residual activity (CDC42BPB (human); compound 1.0 µM): 105%
- residual activity (CDK6 CCND3 (human); compound 1.0 µM): 106%
- residual activity (DYRK2 (human); compound 1.0 µM): 99%
- residual activity ([2]; compound 1.0 µM): 105%
- residual activity ([3]; compound 1.0 µM): 99%
- residual activity (FER (human); compound 1.0 µM): 104%
- residual activity (FGR (human); compound 1.0 µM): 71%
- residual activity ([4]; compound 1.0 µM): 5%
- residual activity (FYN (human); compound 1.0 µM): 71%
- residual activity (HIPK2 (human); compound 1.0 µM): 105%
- residual activity (INSRR (human); compound 1.0 µM): 103%
- residual activity (IRAK4 (human); compound 1.0 µM): 85%
- residual activity (JAK2 JH1 JH2 (human); compound 1.0 µM): 100%
- residual activity (MAP2K7 (human); compound 1.0 µM): 103%
- residual activity (MARK1 (human); compound 1.0 µM): 4%
- residual activity (NTRK1 (human); compound 1.0 µM): 46%
- residual activity (NTRK2 (human); compound 1.0 µM): 50%
- residual activity (NUAK1 (human); compound 1.0 µM): 4%
- residual activity (PDGFRB (human); compound 1.0 µM): 108%
- residual activity (PRKCZ (human); compound 1.0 µM): 97%
- residual activity (PRKD1 (human); compound 1.0 µM): 20%
- residual activity (ROS1 (human); compound 1.0 µM): 95%
- residual activity (RPS6KA3 KD1 KD2 (human); compound 1.0 µM): 2%
- residual activity (RPS6KA4 KD1 KD2 (human); compound 1.0 µM): 43%
- residual activity (TSSK1B (human); compound 1.0 µM): 24%

SMILES: O=C(NCCCNc1nc(Nc2cccc(NC(=O)N3CCCC3)c2)ncc1I)c1cccs1
- residual activity (AXL (human); compound 1.0 µM): 93%
- residual activity (CAMK1 (human); compound 1.0 µM): 97%
- residual activity (CAMK2B (human); compound 1.0 µM): 20%
- residual activity (CAMK4 (human); compound 1.0 µM): 102%
- residual activity (CDC42BPB (human); compound 1.0 µM): 113%
- residual activity (CDK2 CCNE1 (human); compound 1.0 µM): 107%
- residual activity (CDK5 CDK5R1 p35 (human); compound 1.0 µM): 47%
- residual activity (CDK6 CCND3 (human); compound 1.0 µM): 86%
- residual activity ([1]; compound 1.0 µM): 73%
- residual activity (DYRK2 (human); compound 1.0 µM): 97%
- residual activity ([2]; compound 1.0 µM): 102%
- residual activity ([3]; compound 1.0 µM): 117%
- residual activity (EPHA7 (human); compound 1.0 µM): 131%
- residual activity (EPHB1 (human); compound 1.0 µM): 101%
- residual activity (FER (human); compound 1.0 µM): 129%
- residual activity (FGR (human); compound 1.0 µM): 97%
- residual activity ([4]; compound 1.0 µM): 2%
- residual activity (FYN (human); compound 1.0 µM): 98%
- residual activity (GRK6 (human); compound 1.0 µM): 100%
- residual activity (GSG2 (human); compound 1.0 µM): 87%
- residual activity (HIPK2 (human); compound 1.0 µM): 93%
- residual activity (INSRR (human); compound 1.0 µM): 102%
- residual activity (IRAK4 (human); compound 1.0 µM): 85%
- residual activity (JAK2 JH1 JH2 (human); compound 1.0 µM): 23%
- residual activity (MAP2K7 (human); compound 1.0 µM): 106%
- residual activity (MAP3K9 (human); compound 1.0 µM): 23%
- residual activity (MARK1 (human); compound 1.0 µM): 2%
- residual activity (MELK (human); compound 1.0 µM): 53%
- residual activity (NTRK1 (human); compound 1.0 µM): 31%
- residual activity (NTRK2 (human); compound 1.0 µM): 42%
- residual activity (NUAK1 (human); compound 1.0 µM): 8%
- residual activity (PDGFRB (human); compound 1.0 µM): 97%
- residual activity (PRKCB1 (human); compound 1.0 µM): 72%
- residual activity (PRKCZ (human); compound 1.0 µM): 107%
- residual activity (PRKD1 (human); compound 1.0 µM): 53%
- residual activity (PTK2 (human); compound 1.0 µM): 80%
- residual activity (ROS1 (human); compound 1.0 µM): 117%
- residual activity (RPS6KA3 KD1 KD2 (human); compound 1.0 µM): 118%
- residual activity (RPS6KA4 KD1 KD2 (human); compound 1.0 µM): 59%
- residual activity (TSSK1B (human); compound 1.0 µM): 99%

SMILES: CC(C)(C)c1nc2c3ccc(F)cc3c3c(=O)[nH]ccc3c2[nH]1
- residual activity (MELK (human); compound 10.0 µM): 6%
- residual activity (PTK2 (human); compound 10.0 µM): 93%
